Entries after “also recorded” stand apart in the source; their conditions may differ.
Columns and labels:
[1] = test system: BALB/c mice (ADR nephropathy); assay: Adriamycin (ADR) nephropathy in mice, OA-NO2 pretreatment via osmotic mini-pump; format: in vivo, mouse; conditions: for plasma albumin: control 1.01±0.15; for albuminuria (urinary albumin): control 33.39±3.50
Method: Male BABL/C mice were purchased from the Jackson Laboratories (Bar Harbor, Me., USA). Mice were maintained in a temperature-controlled barrier facility with a 12:12-h light-dark cycle and were given free access to standard laboratory chow and tap water. Mice were randomized into three groups: 1) control, 2) Adriamycin (ADR), and 3) ADR+ nitro-oleic acid (OA-NO2). In Group 3, OA-NO2 (dissolved in ethanol) was administered at 5 mg/kg/day via subcutaneously implanted osmotic mini-pump and vehicle (ethanol) was given to the other two groups. This dose was chosen based a previous study (35). After 2 days of pretreatment with OA-NO2, Groups 2 and 3 received a single tail vein injection of ADR at 10 mg/kg. Group 1 received a single tail vein injection of saline. Twenty four-hour urine was collected with using metabolic cages. Seven days after ADR treatment, all mice were killed and kidneys were immediately harvested gene expression or histological analyses. All protocols employing mice were conducted in accordance the principles and guidance of the University of Utah Institutional Animal Care and Committee.
Urine samples were centrifuged for 5 minutes at 10,000 rpm. Blood samples from anesthetized mice were collected by puncturing the vena cava using a 1-ml insulin syringe containing 50 μl of 1 mM EDTA in the absence of protease inhibitors. Urine and plasma albumin was determined using a murine microalbuminuria enzyme-linked immunosorbent assay kit (Cat#1011, EXOCELL). Plasma triglyceride level was determined using a LabAssay Triglyceride ELISA Kit (Cat#290-63701, WAKO). Urine and plasma levels of urea were measured by Urea Nitrogen Direct kit (Cat#0580-250, Stanbio Laboratory), and urine and plasma levels of creatinine were measured by Creatinine Liquicolor kit (Cat#0420-250, Stanbio Laboratory).
Under anesthesia, kidneys were removed and fixed with 4% paraformaldehyde. The tissues were subsequently embedded in paraffin and 4-μm sections were cut and stained with periodic acid Schiff (PAS). Glomerular sclerosis was assessed as follows using a semiquantitative score: grade 0, normal appearance; grade I, involvement of up to 25% of the glomerulus; grade II, involvement of 25 to 50% of the glomerulus; grade III, involvement of 50 to 75% of the glomerulus; grade IV, involvement of 75 to 100% of the glomerulus. A glomerulosclerosis index (GSI) was calculated by multiplying the number of glomeruli with a sclerosis score of I by one, the number with a score of II by two, III by three, and IV by four. These values were summed and divided by the number of glomeruli assessed, including those with a sclerosis score of zero. The SI for each kidney specimen was a sum of the points from 30 glomeruli. Tubulointerstitial injury (defined as tubular atrophy, dilatation, thickening of the basement membrane, protein cast) by semiquantitative analysis. Thirty cortical fields from each animal were examined at ×200 magnification and graded according to a scale of 0 to 4: 0, no tubulointerstitial injury 1, <25% of the tubulointerstitium injured; 2, 25% to 50% of the tubulointerstitium injured; 3, 51% to 75% of the tubulointerstitium injured; and 4, 76% to 100% of the tubulointerstitium injured. All sections were examined in blind manner.
Immunohistochemical staining was performed. Anti-WT1 antibody was purchased from Dako (Mob437, Dako).
Total RNA was isolated using TRIzol (Invitrogen, Carlsbad, Calif.), and first-strand cDNAs were synthesized from 2 μg of total RNA in […] reaction using SuperScript (Invitrogen). The first strand cDNAs served as the template for quantitative PCR performed in Applied Biosystems 7900 Real Time PCR System using SYBR green PCR reagent (Applied Biosystems, Foster City, Calif., USA). The amplification was carried out for 40 cycles with conditions of 15-s denaturation at 95° C. […]

[2] = test system: human proximal tubular cells (HK2); format: cell-based; conditions: pretreatment 1 h with 1.5 μM OA-NO2, then 24 h 1 μM cisplatin
Method: FIG. 6. Bar graphs show the effects of nitrated fatty acid OA-NO2 on cisplatin-induced apoptosis in vivo and in vitro. A), Caspase activity in the mouse kidney. N=5-6 in each group. B), Caspase activity in cultured human proximal tubular cells (HK2). Following pretreatment for 1 h with vehicle or 1.5 μM OA-NO2, the cells were exposed for 24 h to 1 μM cisplatin. N=3 in each group. Data are mean±SE. A single dose of i.p. injection of cisplatin induced renal dysfunction as indicated by the marked rise in plasma BUN (FIG. 1), accompanied by severe renal histological abnormalities characterized by distortion of the overall renal morphology, dilation of renal tubules, and appearance of protein cast (FIG. 2).

[3] = test system: B6129SF2/J mice (cisplatin-induced toxicity); assay: Effects of OA-NO2 on cisplatin-induced toxicity in mice; format: in vivo, mouse; conditions: cisplatin 20 mg/kg i.p.
Method: FIG. 1. A bar graph showing the plasma concentrations of Blood Urea Nitrogen (BUN) in mice under the conditions indicated. N=5-6. Data are mean±n SE. B6129S2/J mice (male, 3-4-mo-old) received vehicle (Control) or a single i.p. injection of cisplatin alone (20 mg/kg in saline). After 20 min, the cisplatin group was randomly divided to receive an i.p injection of OA-NO2 (400 mg/kg in ethanol) or an equivalent amount of ethanol at 6-h intervals for 48 h.
Male 3-4-month-old B6129SF2/J mice were from Jackson Laboratories (Bar Harbor, Me.). All animals were housed in an air-conditioned room with a 12-hour light/dark cycle. All procedures and protocols were in accordance with guidelines set by the Laboratory Animal Care Committee at the University of Utah.
Protocol for testing effects of OA-NO2 on cisplatin-induced toxicity in B6129SF2/J mice. B6129S2/J mice (male, 3-4-mo-old) received vehicle (saline) or a single i.p. (intraperitoneal) injection of cisplatin alone (20 mg/kg in saline). After 20 minutes, the cisplatin group was randomly divided to receive an i.p. injection of OA-NO2 (400 mg/kg in ethanol) or an equivalent amount of ethanol at 6-hour intervals for 48 hours. The control group also received an i.p. injection of the equivalent amount of ethanol at the same frequencies. At the end of the experiments, under isoflurane anesthesia, blood was withdrawn from the vena cava using 1 cc insulin syringe and kidneys were harvested for analysis of morphology and gene expression.

[4] = ADR+OA-NO2 group vs ADR, P<0.05
[5] = OA-NO2 treatment in ADR mice, P<0.05
[6] = OA-NO2 treatment in ADR mice, real-time PCR and Western blotting, P<0.05
[7] = OA-NO2 400 mg/kg i.p. at 6-h intervals for 48 h
[8] = OA-NO2 400 mg/kg i.p. at 6-h intervals for 48 h, real time RT-PCR
[9] = posttreatment OA-NO2 400 mg/kg i.p. at 6-h intervals for 48 h

COc1cccc2c1C(=O)c1c(O)c3c(c(O)c1C2=O)C[C@@](O)(C(=O)CO)C[C@@H]3O[C@H]1C[C@H](N)[C@H](O)[C@H](C)O1 [ADR, doxorubicin (Adriamycin), reference compound]
plasma triglyceride ([1]; ADR group (ADR 10 mg/kg alone)): 396.18 ± 70.94 mg/dL
plasma albumin ([1]; ADR group (ADR 10 mg/kg alone), day 7): 0.28 ± 0.08 g/dL
albuminuria (urinary albumin) ([1]; ADR group (ADR 10 mg/kg tail vein alone), day 5): 508.89±48.52 μg/24 h
mice with severe ascites at sacrifice ([1]; ADR mice (ADR 10 mg/kg alone)): Ninety

nitrooleic acid [OA-NO2]
renal ZO-1 mRNA (qRT-PCR) ([1]; ADR+OA-NO2 group): significant elevation
number of WT1-positive cells (podocytes), immunohistochemistry ([1]; ADR+OA-NO2 group vs ADR group): partially restored
plasma BUN ([1]; ADR+OA-NO2 group vs ADR group): significantly attenuated
plasma creatinine ([1]; ADR+OA-NO2 group vs ADR group): significantly attenuated
renal gp91phox protein (immunoblot) ([1]; ADR+OA-NO2 group vs ADR, P<0.01): further confirmed at the protein level
renal mRNA expression of gp91phox [1, 4]: the increase was less
renal mRNA expression of p47phox [1, 4]: the increase was less
plasma triglyceride ([1]; ADR+OA-NO2 group, OA-NO2 5 mg/kg/day): 212.70 ± 39.22 mg/dL
albuminuria (urinary albumin) ([1]; ADR+OA-NO2 group, day 5 after ADR 10 mg/kg i.v., OA-NO2 5 mg/kg/day s.c. mini-pump from 2 days before): 342.40±33.26 μg/24 h
plasma albumin ([1]; ADR+OA-NO2 group, day 7 after ADR, OA-NO2 5 mg/kg/day): 0.58 ± 0.13 g/dL
mice having mild ascites at sacrifice ([1]; ADR+OA-NO2 mice, OA-NO2 5 mg/kg/day): 20%
glomerulosclerotic index (GSI), PAS staining ([1]; ADR+OA-NO2 vs ADR, P<0.05): ameliorates glomerulosclerosis; also recorded: marked reduction
albuminuria (urinary albumin), time course ([1]; ADR+OA-NO2 vs ADR, day 3 and day 7 after ADR injection): ameliorates albuminuria; also recorded: These changes were observed at day 3 and maintained at day 7
tubulointerstitial lesion (TILI) ([1]; ADR+OA-NO2 vs ADR, day 8 after ADR injection): ameliorates
renal expression of IL-1β (qRT-PCR) ([1]; OA-NO2 in ADR mice): suppressed
renal expression of MCP-1 (qRT-PCR) ([1]; OA-NO2 in ADR mice): suppressed
renal expression of TNF-α (qRT-PCR) ([1]; OA-NO2 in ADR mice): suppressed
renal WT1 protein (immunoblotting) ([1]; OA-NO2 pretreatment in ADR mice, P<0.05): prevented the downregulation
renal desmin mRNA (qRT-PCR) ([1]; OA-NO2 treatment in ADR mice): prevented this increase
renal TGF-β mRNA expression [1, 5]: dramatic suppression
renal collagen III mRNA expression [1, 5]: dramatic suppression
renal fibronectin (FN) expression [1, 6]: prevented the up-regulation
renal α-SMA expression [1, 6]: prevented the up-regulation
kidney TBARS ([1]; OA-NO2 treatment vs ADR mice): trend of reduction of TBARS levels in response to OA-NO2 treatment but this did not reach a statistical significance
plasma TBARS ([1]; OA-NO2 treatment vs ADR mice): markedly attenuated
urinary TBARS ([1]; OA-NO2 treatment vs ADR mice): markedly attenuated
cisplatin-induced caspase activity [2]: almost completely normalized
activity of caspase in the mouse kidney [3, 7]: attenuated or completely corrected
kidney thiobarbituric acid-reactive substances (TBARS) [3, 7]: attenuated or completely corrected
plasma level of MPO ([3]; OA-NO2 400 mg/kg i.p. at 6-h intervals for 48 h, EIA): reduces; also recorded: attenuated or completely corrected
kidney expression of NADPH oxidase subunit gp91phox [3, 8]: attenuated or completely corrected
kidney expression of NADPH oxidase subunit p47phox [3, 8]: attenuated or completely corrected
plasma BUN (renal function) [3, 9]: improves renal function; also recorded: markedly attenuated
renal histological abnormalities (renal morphology, dilation of tubules, protein cast) [3, 9]: improves renal morphology; also recorded: markedly attenuated
